In patent US20240041889A1, “COMBINATION THERAPY WITH ADENOSINE RECEPTOR ANTAGONISTS” (Teon Therapeutics, Inc., priority 2020, published 2024):

Tests used:
CT26 tumor = experiment: Combination with anti-PD-1 in a CT26 model; assay type: in vivo, Balb/C mice; details: intraperitoneally for 16 days
Protocol: Methods: Balb/C inbred female mice, aged at 8-9 week, were purchased from Charles River. On the day of inoculation (Day 0), CT26 cells were harvested, washed and counted. Cells were re-suspended as single cell solution in PBS at a concentration of 5×10^6 cells/mL at the final step. Immediately, five hundred thousand (5×10^5) of CT26 cells suspended in 0.1 mL PBS were injected in the right flank of Balb/C mice subcutaneously using 27G needles. When palpable, tumors were measured by a caliper and tumor volume (mm^3) were calculated by length×width×height×0.5236. Mice with the tumor size approximate to 100 mm^3 were randomly assigned into one of four groups (n=10). Each group received vehicle (BID), A2B antagonist Compound 1 at 3 mg/kg (BID), mouse anti-PD-1 (RMP1-14) at 5 mg/kg (Q2D), or Compound 1 (3 mg/kg)+RMP1-14 (5 mg/kg) intraperitoneally for 16 days. Tumor size and body weight were determined every 2-3 days.

B16F10 tumor = experiment: Combination with anti-PD-1 in a B16F10 model; assay type: in vivo, C57BL/6 mice; details: intraperitoneally for 7 days
Protocol: Methods: C57BL/6 inbred female mice, aged at 8-9 week, were purchased from Charles River. On the day of inoculation (Day 0), B16F10 cells were harvested, washed and counted. Cells were re-suspended as single cell solution in PBS at a concentration of 5×10^6 cells/mL at the final step. Immediately, five hundred thousand (5×10^5) of B16F10 cells suspended in 0.1 mL PBS were injected in the right flank of C57BL/6 mice subcutaneously using 27G needles. When palpable, tumors were measured by a caliper and tumor volumes (mm^3) were calculated by length×width×height×0.5236. Mice with the tumor size approximate to 100 mm^3 were randomly assigned into one of four groups (n=10). Each group received vehicle (BID), A2B antagonist Compound 1 at 1 mg/kg (BID), mouse anti-PD-1 (RMP1-14) at 10 mg/kg (Q3D), or Compound 1 (1 mg/kg)+RMP1-14 (10 mg/kg) intraperitoneally for 7 days. Tumor size and body weight were determined every 2-3 days.

[1] = tested on: tumor-infiltrating immune cells; experiment: Mechanistic study in a MC38 model, FACS analysis of tumor tissue; assay type: in vivo, C57BL/6 mice; details: 6 days after drug treatment
Protocol: Methods: C57BL/6 inbred female mice, aged at 6-8 week, were purchased from Shanghai Lingchang Biotechnology Co., Ltd. On the day of inoculation (Day 0), MC38 cells were harvested, washed and counted. Cells were re-suspended as single cell solution in PBS at a concentration of 1×10^6 cells/mL at the final step. Immediately, […] (1×10^5) of MC38 cells suspended in 0.1 mL PBS were injected in the right flank of C57BL/6 mice subcutaneously using 27G needles. When palpable, tumors were measured by a caliper and tumor volume (mm^3) were calculated by length×width×height×0.5236. Mice with the tumor size approximately to 80-100 mm^3 were randomly assigned into one of four groups (n=8). Each group received vehicle (BID), A2B antagonist Compound 1 at 3 mg/kg (BID), mouse anti-PD-1 (RMP1-14) at 10 mg/kg (Q3D), or Compound 1 (3 mg/kg)+RMP1-14 (10 mg/kg) intraperitoneally. Tumor tissues were collected 6 days after drug treatment and made single cell suspension for FACS analysis to detect tumor-infiltrating immune cells.

MC38 tumor model = experiment: Fibrosis in a MC38 tumor model; assay type: in vivo

## CCCn1c(=O)c2[nH]c(-c3cnn(Cc4cccc(C(F)(F)F)c4)c3)nc2n(CC)c1=O [Compound 1, 8-(1-(3-(Trifluoromethyl)benzyl)-1H-pyrazol-4-yl)-3-ethyl-1-propyl-1H-purine-2,6(3H,7H)-dione]
CT26 tumor; CT26 model
  effect on mouse body weight: no significant effect
CT26 tumor; Compound 1 3 mg/kg BID, RMP1-14 5 mg/kg Q2D, alone or combined
  maximal CT26 tumor growth inhibition (TGI): 47.5%
B16F10 tumor; B16F10 model
  effect on mouse body weight: no effect
B16F10 tumor; Compound 1 1 mg/kg BID, RMP1-14 10 mg/kg Q3D, alone or combined
  maximal B16F10 tumor growth inhibition (TGI): 48.7%
[1]; Compound 1 3 mg/kg BID i.p.
  increase of the amount of dendritic cells (DCs): 34%
  reduction of the amount of myeloid-derived suppressor cells (MDSCs): 41%
  reduction of the amount of regulatory T cells (Tregs): 28%
[1]; Compound 1 3 mg/kg BID, RMP1-14 10 mg/kg Q3D, alone or combined, i.p.
  increase of the amount of CD8+ T cells: 58%
[1]; Compound 1 3 mg/kg BID, RMP1-14 10 mg/kg Q3D, i.p.
  increase of the amount of CD4+ T cells: 84%
MC38 tumor model
  fibrosis: reduces fibrosis
